Where two headings read alike, the source gives them in different places.
Legend:
[1] = system: human airway smooth muscle cells; experiment: [Ca2+]i increase in cultured primary human airway smooth muscle cells (Fluo-4 AM); assay type: cell-based; conditions: for effect on saccharin-elicited [Ca2+]i increase: absence of extracellular calcium, FIG. 1d; for [Ca2+]i response in human ASM cells: 1.0 mM tastant, FIG. 1c
Description: (§1) Dose response curves for [Ca^2+]i and ex vivo tracheal ring studies were analyzed by iterative non-linear (sigmoidal) least squares fitting. Results from all studies were compared using paired or unpaired two-way t-tests (depending on study design), with P<0.05 considered significant. When multiple comparisons were sought, an ANOVA with post-hoc t-tests was utilized with a correction for multiple comparisons. Data are presented as mean±standard error.

isolated human ASM cells = experiment: Magnetic twisting cytometry, stiffness of isolated human ASM cells; assay type: cell-based; conditions: for effect on saccharin-promoted relaxation of isolated ASM: 1 mM saccharin, U73122 1 μM, H89 100 nM, IbTx and ChTx 100 nM (FIG. 7b); for change in single-cell stiffness from baseline: isolated human ASM cells, FIG. 7a
Description: Dynamic changes in baseline cell stiffness were measured as an indicator of contraction and relaxation of isolated human ASM cells using magnetic twisting cytometry as described in detail previously^15. In brief, Arg-Gly-Asp coated ferromagnetic microbeads bound to adherent human ASM cells were magnetized horizontally and then twisted in a vertically aligned homogenous magnetic field that was varying sinusoidally in time. Sinusoidal twisting magnetic field caused both a rotation and a pivoting displacement of the bead: such forced bead motions are, in turn, impeded by internal stresses developed by the cell. Lateral bead displacements in response to the resulting oscillatory torque were detected with a spatial resolution of ˜5 nm, and the ratio of specific torque to bead displacements was computed and expressed as the cell stiffness in units of Pascal/nm (Pa/nm). For each individual ASM cell, baseline stiffness was measured for the first 60 sec, and after drug addition stiffness was measured continuously for the next 540 sec. […] For each cell, stiffness was normalized to its baseline stiffness prior to the agonist stimulation.

ASM cells = experiment: Membrane potential of ASM cells (membrane potential-sensitive fluorescent dye); assay type: cell-based, human; conditions: for change of membrane potential: 60 mM KCl, 1.0 μM histamine, 1 mM saccharin or chloroquine
Description: Primary human ASM cells were obtained from a commercial source (Clonetics) and maintained as described^31, with experiments performed using cells at passages 3-8. […] The effects of bitter tastants on membrane potential of whole ASM cells was measured using a membrane potential-sensitive fluorescent dye (Molecular Devices) as described^19 in a 96 well plate format with 50,000 cells/well. Excitation was at 530 nm and emission acquired at 565 nm. Data were collected in real time for 300 sec and are shown as relative fluorescent units.

intact mouse tracheas = experiment: Ex vivo relaxation of intact mouse tracheal rings (isometric myograph); conditions: for relaxation of airways contracted by serotonin: 1.0 mM serotonin, FIG. 4b; for EC50: Mus musculus
Description: Briefly, tracheal rings fitted between a fixed wire and a transducer-coupled wire were maintained in Krebs buffer at 37° C. with aeration from 95% O2, 5% CO2.
as §1

H292 cells = experiment: [Ca2+]i-stimulated dose-response in H292 cells; assay type: cell-based, human; conditions: for EC50: Homo sapiens
Description: (§2) In one example, cells are grown in multi-well dishes, loaded with a fluorescence-based calcium indicator dye, and test compounds are added with subsequent monitoring of the change in fluorescence indicative of a change in intracellular calcium [Ca^2+]i release. Test compounds can include, e.g., those with structural similarities to the known bitter taste receptor agonists or antagonists.
(§3) If appropriate, airway cells can also be tested using them within tracheal rings, as described herein and as is well-known in the art.

BEAS2B cells = experiment: [Ca2+]i-stimulated dose-response in BEAS2B cells; assay type: cell-based, human
Description: as §2, §3

mouse model of asthma = experiment: Airway resistance in control and ovalbumin-sensitized mice (flexiVent); assay type: in vivo; conditions: for decrease in airway resistance: aerosol during methacholine bronchoconstriction, quinine 150 μg, denatonium 200 μg
Description: Sensitization of 6-week old BALB/c mice was carried out by i.p. injections of […] ovalbumin in 200 μl alum, or alum alone (control) on days 0 and 14. Mice were then challenged with 1.0% aerosolized ovalbumin on days 19, 21 and 24. Twenty-four hours after the last challenge, mice were sedated, intubated and the flexiVent system (SCIREQ) was utilized for ventilation and measurement of airway resistance as previously described^40. Ventilation was at 150 breaths/min with a tidal volume of 240 μl and positive end expiratory pressure of 2.5 cm H2O. After stabilization, mice were challenged with doses of aerosolized methacholine (2.0, 4.0, 8.0 and 16 mg/ml in the nebulizer) until the sustained airway resistance became ˜5-fold greater than baseline. Three minutes after the last […] inhalation, the bitter tastants quinine (150 μg) or denatonium (200 μg), or the β-agonist albuterol (3.0 μg) were administered by aerosol over 10 sec. Resistance measurements (Raw, cm H2O/ml/sec) were taken every 30 sec throughout the experiment.

human ASM cells [2] = conditions: 0.3 mM saccharin, 1.0 μM histamine
human ASM cells [3] = experiment: PKA-mediated VASP phosphorylation, Western blot in human ASM cells; assay type: cell-based; conditions: 1.0 mM chloroquine or saccharin, 10 μM forskolin
Description: Primary human ASM cells were obtained from a commercial source (Clonetics) and maintained as described^31, with experiments performed using cells at passages 3-8. These cells consisted of >95% airway smooth muscle as previously ascertained^31. For detecting changes in [Ca^2+]i attached cells in 96-well plates (80,000 cells/well) were loaded with Fluo-4 AM (BD Biosciences) with probenecid for one hour at 37° C. Receptor agonists were added at the indicated concentrations at 37° C. by an automated pipetting system in triplicate and the 525 nm signals were generated by excitation at 485 nm using a Flex Station II (Molecular Devices). Data was acquired every 1.5 sec for 60 sec. Unless otherwise stated, studies were performed in media containing 1.5 mM calcium. In some studies, ASM were transfected with T2R10 siRNA (Invitrogen) or a scrambled-sequence siRNA control by electroporation (Nucleofector, Lonza) using 4×10^6 cells and 4 μg of siRNA. Twenty-four hours later cells were transferred to the 96-well plates for the [Ca^2+]i assay. […] Samples were acetylated and cAMP measured by a highly sensitive ^125I-cAMP based radioimmunoassay as previously described^32. […] The effects of bitter tastants on membrane potential of whole ASM cells was measured using a membrane potential-sensitive fluorescent dye (Molecular Devices) as described^19 in a 96 well plate format with 50,000 cells/well. […]

## NCCOB(c1ccccc1)c1ccccc1 [2APB]
[1]
  effect on saccharin-elicited [Ca2+]i increase: partially inhibited

## O=S(=O)(NCCNC/C=C/c1ccc(Br)cc1)c1cccc2cnccc12 [H89]
Isolated human ASM cells
  effect on saccharin-promoted relaxation of isolated ASM: not blocked

## [Cl-].[K+] [KCl]
ASM cells
  change of membrane potential: membrane depolarization

## COC(=O)[C@@H](N)CCCNC(=N)N[N+](=O)[O-] [L-NAME]
Intact mouse tracheas
  effect on bitter tastant-mediated airway relaxation: not altered

## C[C@H](NC(=NCC(=O)O)Nc1ccc(C#N)cc1)c1ccccc1 [SC45647]
[1]
  [Ca2+]i response in human ASM cells: no response

## C/C=C(/C)C(=O)O[C@H]1C(C)=C2[C@H]([C@@H]1OC(=O)CCCCCCC)[C@@](C)(OC(C)=O)C[C@H](OC(=O)CCC)[C@@]1(O)[C@H]2OC(=O)[C@@]1(C)O [Thapsigargin, thapsigargin]
Intact mouse tracheas; 10 μM thapsigargin pre-incubation, chloroquine 3.0 mM
  effect on chloroquine-mediated relaxation of intact airway rings: blocked
[1]; 10 μM thapsigargin pre-incubation 30 min
  effect on chloroquine and other bitter tastant-mediated [Ca2+]i stimulation: blocked

## COc1ccc2c(c1)CC[C@@H]1[C@@H]2CC[C@]2(C)[C@@H](NCCCCCCN3C(=O)C=CC3=O)CC[C@@H]12 [U73122]
[1]
  effect on saccharin-elicited [Ca2+]i increase: ablated
Isolated human ASM cells
  effect on saccharin-promoted relaxation of isolated ASM: eliminated

## COc1cccc2c1cc([N+](=O)[O-])c1c(C(=O)O)cc3c(c12)OCO3 [aristocholic acid]
[1]
  [Ca2+]i response in human ASM cells: [Ca^2+]i responses

## CCN(CC)CCCC(C)Nc1ccnc2cc(Cl)ccc12 (stereo not drawn) [chloroquine]
Intact mouse tracheas
  relaxation of airways contracted by serotonin: marked relaxation
Intact mouse tracheas; read-out: EC50 for relaxation, contraction stimulated by acetylcholine
  EC50: 93 ± 4.3 µM
Intact mouse tracheas; read-out: EC50 for relaxation, contraction stimulated by serotonin
  EC50: 110 ± 32 µM
Intact mouse tracheas; submaximal dose of chloroquine (200 μM), 1.0 mM acetylcholine
  relaxation of acetylcholine-mediated constriction: ~67%
H292 cells; H292 cells
  efficacy: 37,136 fluorescence units
H292 cells; NCI-H292, read-out: potency, [Ca2+]i-stimulated dose-response curve
  EC50: 74 µM
BEAS2B cells
  efficacy: 13,995 fluorescence units
BEAS2B cells; Homo sapiens, BEAS-2B, read-out: potency, [Ca2+]i-stimulated dose-response curve
  EC50: 90 µM
[1]
  [Ca2+]i response in human ASM cells: evoked increased [Ca^2+]i
[1]; Homo sapiens, cultured ASM cells, FIG. 1a, read-out: EC50 for [Ca2+]i release
  EC50: 70 ± 10 µM
[1]; human airway smooth muscle cells, FIG. 14
  efficacy, net change in fluorescence units: 84,317 fluorescence units
[1]; human airway smooth muscle cells, FIG. 14, read-out: potency, [Ca2+]i dose-response curve
  EC50: 70 µM
ASM cells
  change of membrane potential: membrane hyperpolarization
Isolated human ASM cells
  change in single-cell stiffness from baseline: resulted in ASM relaxation

## COc1cc2c(c(OC)c1OC)-c1ccc(OC)c(=O)cc1[C@@H](NC(C)=O)CC2 [colchicine]
[1]
  [Ca2+]i response in human ASM cells: relatively low response

## CC[N+](CC)(CC(=O)Nc1c(C)cccc1C)Cc1ccccc1 [denatonium]
[1]
  [Ca2+]i response in human ASM cells: evoked increased [Ca^2+]i
Mouse model of asthma; normal mice
  decrease in airway resistance: 44±6%
Mouse model of asthma; ovalbumin-sensitized mice
  decrease in airway resistance: 57±4%

## O=C1OC2(c3ccccc31)c1ccc(O)c(O)c1Oc1c2ccc(O)c1O [gallein]
[1]
  effect on saccharin-elicited [Ca2+]i increase: ablated

## NCCc1c[nH]cn1 [histamine]
Human ASM cells [2]
  spatial pattern of [Ca2+]i response: rapid rise in [Ca^2+]i throughout the cell
ASM cells
  change of membrane potential: membrane depolarization
Isolated human ASM cells
  change in single-cell stiffness from baseline: contraction

## COc1ccc2c(c1)c(CC(=O)O)c(C)n2C(=O)c1ccc(Cl)cc1 [indomethacin]
Intact mouse tracheas
  effect on bitter tastant-mediated airway relaxation: not altered

## CC(C)NCC(O)c1ccc(O)c(O)c1 (stereo not drawn) [isoproterenol]
Intact mouse tracheas; maximal concentration of isoproterenol (30 μM)
  relaxation after chloroquine exposure, washout and acetylcholine re-challenge: 29±4.3%
Intact mouse tracheas; tracheas contracted with 1.0 mM acetylcholine
  maximal relaxation response, loss of active contraction / reduction in active tension: 30±9.2%
Isolated human ASM cells
  change in single-cell stiffness from baseline: relaxation

## CC(=O)OC(C)C[N+](C)(C)C (stereo not drawn) [methacholine]
Mouse model of asthma; non-sensitized mice
  concentration of inhaled methacholine required to increase baseline airway resistance by 5-fold: 16 mg/mL
Mouse model of asthma; ovalbumin-sensitized mice
  concentration of inhaled methacholine required to increase baseline airway resistance by 5-fold: 8 mg/mL

## C=C[C@H]1C[N@@]2CC[C@H]1C[C@H]2[C@H](O)c1ccnc2ccc(OC)cc12 [quinine]
Intact mouse tracheas
  relaxation of airways contracted by serotonin: marked relaxation
H292 cells; H292 cells
  efficacy: 133,201 fluorescence units
H292 cells; NCI-H292, H292 cells, read-out: potency, [Ca2+]i-stimulated dose-response curve
  EC50: 703 µM
[1]
  [Ca2+]i response in human ASM cells: [Ca^2+]i responses
Mouse model of asthma; normal mice
  decrease in airway resistance: 53±2.96%
Mouse model of asthma; ovalbumin-sensitized mice
  decrease in airway resistance: 50±8%

## O=C1NS(=O)(=O)c2ccccc21 [saccharin]
[1]
  [Ca2+]i response in human ASM cells: evoked increased [Ca^2+]i
Human ASM cells [3]
  PKA-mediated VASP phosphorylation: Neither chloroquine nor saccharin promoted VASP phosphorylation
Isolated human ASM cells
  change in single-cell stiffness from baseline: resulted in ASM relaxation

## OCc1ccccc1O[C@@H]1O[C@H](CO)[C@@H](O)[C@H](O)[C@H]1O [salicin]
[1]
  [Ca2+]i response in human ASM cells: no response

## OC[C@H]1O[C@H](O[C@]2(CCl)O[C@H](CCl)[C@@H](O)[C@@H]2O)[C@H](O)[C@@H](O)[C@H]1Cl [sucralose]
[1]
  [Ca2+]i response in human ASM cells: no response

## COC(=O)[C@@H]1[C@H]2C[C@H]3c4[nH]c5ccccc5c4CCN3C[C@@H]2CC[C@@H]1O [yohimbine]
[1]
  [Ca2+]i response in human ASM cells: [Ca^2+]i responses

## charybdotoxin
Isolated human ASM cells
  effect on saccharin-promoted relaxation of isolated ASM: ablated

## iberiotoxin (QFTDVDCSVSKECWSVCKDLFGVDRGKCMGKKCRCYQ; UniProt P24663 1-37, looked up) [specific BKCa channel antagonist]
Intact mouse tracheas; 1 mM chloroquine, 100 nM iberiotoxin pretreatment
  effect on chloroquine-promoted relaxation in the isolated mouse airway: attenuated
ASM cells; 100 nM iberiotoxin preincubation
  effect on bitter tastant-promoted membrane hyperpolarization: completely inhibited
Isolated human ASM cells
  effect on saccharin-promoted relaxation of isolated ASM: ablated

Reference: patent US9579315B2, “Methods of treating obstructive lung diseases using bitter tastants” (UNIVERSITY OF MARYLAND, BALTIMORE, priority 2010, dated 2017)
